Experimental findings from US11873298B2, “Compounds and uses thereof” (JANSSEN PHARMACEUTICA NV, priority 2017, dated 2024) are described below.

Test [1] concerns the target T1, SCD5 (Homo sapiens, UniProt Q86SK9).
T1 construct: host or cells: S. cerevisiae ole1Δ strain (W303 pdr1Δ pdr3Δ background), plasmid pRS316 with TDH3 promoter and CYC1 terminator
T1 sequence (Q86SK9 1-330): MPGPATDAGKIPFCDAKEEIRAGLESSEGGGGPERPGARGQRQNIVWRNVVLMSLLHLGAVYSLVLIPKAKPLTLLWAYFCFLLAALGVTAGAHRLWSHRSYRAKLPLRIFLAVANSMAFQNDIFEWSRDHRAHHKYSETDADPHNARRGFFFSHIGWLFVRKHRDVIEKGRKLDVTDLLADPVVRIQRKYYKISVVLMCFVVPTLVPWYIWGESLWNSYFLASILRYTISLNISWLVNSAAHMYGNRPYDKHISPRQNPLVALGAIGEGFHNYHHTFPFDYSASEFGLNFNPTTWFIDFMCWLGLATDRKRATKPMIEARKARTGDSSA
In words: Growth inhibition of humanized yeast strain expressing SCD5 as sole desaturase. It counts as cell-based. The gist of the method:
(§1)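 Plasmid-complemented ole1Δ yeast, drug-pump deleted (pdr1Δ pdr3Δ), depend solely on the introduced Ole1, SCD1 or SCD5 desaturase. Compounds are added from DMSO to cells in uracil-free galactose medium, 2× density 0.02, and OD600 is read after 24 h or 40 h respectively.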

The target of test [2] is T2, SCD1 (Homo sapiens, UniProt O00767).
T2 construct: host or cells: S. cerevisiae ole1Δ strain (W303 pdr1Δ pdr3Δ background), plasmid pRS316 with TDH3 promoter and CYC1 terminator
T2 sequence (O00767 1-359): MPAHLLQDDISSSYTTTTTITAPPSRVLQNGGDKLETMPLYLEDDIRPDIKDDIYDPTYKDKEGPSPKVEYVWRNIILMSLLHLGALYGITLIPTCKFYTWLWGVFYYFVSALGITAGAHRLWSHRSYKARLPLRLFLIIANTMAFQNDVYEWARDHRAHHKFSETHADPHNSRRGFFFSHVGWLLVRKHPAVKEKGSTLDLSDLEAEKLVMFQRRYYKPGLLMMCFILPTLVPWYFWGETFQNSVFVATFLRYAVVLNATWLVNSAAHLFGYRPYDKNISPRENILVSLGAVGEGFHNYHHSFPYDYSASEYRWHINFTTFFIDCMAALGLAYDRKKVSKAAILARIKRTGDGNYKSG
Kind of test: Growth inhibition of humanized yeast strain expressing SCD1 as sole desaturase. It counts as cell-based. The gist of the method: as §1

Setting [3] is: growth inhibition of humanized yeast strain expressing human SCD5.
The mark [4] stands for this setting: growth inhibition of humanized yeast strain expressing human SCD1.

Where only a bound is given, the exact number is not on record here.

Consider `C=C(C)c1ccc(C(=O)N2CCC(c3nc(-c4ccc5cnn(C)c5c4)no3)CC2)nc1` [Compound 501], for which the concentration for half-maximal inhibition (IC50) in test [1] (humanized yeast strain expressing SCD5) amounted to 21.3 µM; in test [2] (humanized yeast strain expressing SCD1), 12.2 µM.

`COC(=O)N1CCC(c2nc(-c3ccnc(NC(C)C)c3)no2)CC1` [Compound 815]: the IC50 in test [1] (humanized yeast strain, 40 h) is above 45 µM; in test [2] (humanized yeast strain, 40 h) it was above 45 µM.

As for `CCC(=O)N1CCC(c2noc(-c3cccc(N4CCOCC4)c3F)n2)CC1` [Compound 1159], the IC50 in test [1] (humanized yeast strain, 40 h) was above 45 µM; in test [2] (humanized yeast strain, 40 h), above 45 µM.

On to `CC(C)(C)OC(=O)N1CCC(c2nc(-c3ccc4cnn(C5CC(F)(F)C5)c4c3)no2)CC1` [Compound 742], for which the concentration for half-maximal inhibition (IC50) in test [1] (setting [3]) was 5.05 µM; in test [2] (setting [4]) it was above 45 µM.

As to `COC1CCC(S(=O)(=O)N2CCC(c3nc(-c4ccc5cnn(C(C)C)c5c4)no3)CC2)CC1` (stereo not drawn) [Compound 675], the IC50 in test [1] (setting [3]) is 0.01 µM; in test [2] (setting [4]), above 45 µM.

For the compound `CC(C)n1ncc2ccc(-c3nc(N4CCN(C(=O)OC5(C)CC5)CC4)no3)cc21` [Compound 682], the IC50 in test [1] (setting [3]) is 0.01 µM; in test [2] (setting [4]), above 45 µM.

Regarding `O=C(N1CCC(c2noc(-c3ccc4cnn(C5COC5)c4c3)n2)CC1)C12CC(C1)C2` [Compound 890], the IC50 in test [1] (humanized yeast strain, 40 h) was found to be 0.01 µM; in test [2] (humanized yeast strain, 40 h) it was 22.7 µM.

For the compound `CCC(=O)N1CCC(c2cc(-c3cc4c(cn3)cnn4C3COC3)no2)CC1` [Compound 1147], the half-inhibitory concentration (IC50) was 5.46 µM in test [1] (humanized yeast strain, 40 h) and above 45 µM in test [2] (humanized yeast strain, 40 h).

As for `O=C(C1CC12CC2)N1CCN(c2nnc(-c3ccc4cnn(C5COC5)c4c3)o2)CC1` (stereo not drawn) [Compound 991], the concentration for half-maximal inhibition (IC50) in test [1] (humanized yeast strain, 40 h) was above 45 µM; in test [2] (humanized yeast strain, 40 h), above 45 µM.

As to `CC(CCO)n1ncc2ccc(-c3noc(C4CCN(C(=O)OC(C)(C)C)CC4)n3)cc21` (stereo not drawn) [Compound 641], the IC50 in test [1] (setting [3]) was 6.72 µM; in test [2] (setting [4]), above 45 µM.

For the compound `Cc1nn(C)c2cc(-c3nc(C4CCN(C(=O)OC5CC5)CC4)no3)ccc12` [Compound 911], the IC50 in test [1] (humanized yeast strain, 40 h) was above 45 µM; in test [2] (humanized yeast strain, 40 h), above 45 µM.

Turning to `CC(C)(C)OC(=O)N1CCN(c2noc(-c3ccnc(Cl)c3)n2)CC1` [Compound 754], the IC50 was 16.5 µM in test [1] (humanized yeast strain, 40 h) and above 45 µM in test [2] (humanized yeast strain, 40 h).

As to `CC(C)(C)OC(=O)N1CCC(c2nc(-c3ccn4cncc4c3)no2)CC1` [Compound 793], the half-inhibitory concentration (IC50) in test [1] (humanized yeast strain, 40 h) is above 45 µM; in test [2] (humanized yeast strain, 40 h) it was above 45 µM.

Turning to `COC(=O)N1CCC(c2nc(-c3ccc4cnn([C@H]5CCOC5)c4c3)no2)CC1` [Compound 906], the half-maximal inhibitory concentration (IC50) in test [1] (humanized yeast strain, 40 h) was 0.89 µM; in test [2] (humanized yeast strain, 40 h) it was above 45 µM.

For the compound `CC(C)(C)OC(=O)N1CCC(c2noc(-c3ccc4cnn(C5COC5)c4c3)n2)CC1` [Compound 750], the 50% inhibitory concentration (IC50) in test [1] (humanized yeast strain, 40 h) is 0.01 µM; in test [2] (humanized yeast strain, 40 h) it was 3.25 µM.

In the case of `COC(=O)N1CC2(C1)CN(c1noc(-c3ccc4cnn(C5COC5)c4c3)n1)C2` [Compound 1063], the IC50 in test [1] (humanized yeast strain, 40 h) was 3.44 µM; in test [2] (humanized yeast strain, 40 h), above 45 µM.

`CC(C)n1cc2c(n1)CN(c1noc(C3CCN(C(=O)OC(C)(C)C)CC3)n1)CC2` [Compound 868]: the half-maximal inhibitory concentration (IC50) was 0.967 µM in test [1] (humanized yeast strain, 40 h) and above 45 µM in test [2] (humanized yeast strain, 40 h).

As to `CC(C)(C)OC(=O)N1CC(c2nc(-c3ccc4cn(C5COC5)nc4c3)no2)C1` [Compound 708], the IC50 in test [1] (setting [3]) and in test [2] (setting [4]) was above 45 µM each time.

With `O=C(c1ccccc1F)N1CCN(c2noc(-c3ccc4cnn(C5CNC5)c4c3)n2)CC1` [Compound 957], the IC50 was determined as 0.01 µM in test [1] (humanized yeast strain, 40 h) and 27.9 µM in test [2] (humanized yeast strain, 40 h).

Turning to `CCC(=O)N1CCN(c2noc(-c3ccc4cnn(C5COC5)c4c3)n2)CC1` [Compound 841], the half-maximal inhibitory concentration (IC50) in test [1] (humanized yeast strain, 40 h) is 0.209 µM; in test [2] (humanized yeast strain, 40 h), above 45 µM.

In the case of `COC(=O)N1CCC(c2noc(-c3ccc4cnn(C(C)C)c4c3)n2)CC1` [Compound 629], the values for the concentration for half-maximal inhibition (IC50) in test [1] (setting [3]) and in test [2] (setting [4]) were 0.03 µM and above 45 µM, respectively.

In the case of `O=C(CC1CC1)N1CCCN(c2noc(-c3ccc4cnn(C5COC5)c4c3)n2)CC1` [Compound 965], the IC50 was 0.01 µM in test [1] (humanized yeast strain, 40 h) and above 45 µM in test [2] (humanized yeast strain, 40 h).

As for `CC(C)(C)OC(=O)N1CCN(c2nc(-c3ccc4cnn(C5CNC5)c4c3)no2)CC1` [Compound 910], the IC50 in test [1] (humanized yeast strain, 40 h) is 0.01 µM; in test [2] (humanized yeast strain, 40 h), above 45 µM.

`CC(C)C(=O)N1CCC(c2noc(-c3cnc4cnn(C5COC5)c4c3)n2)CC1` [Compound 1138]: the half-maximal inhibitory concentration (IC50) was 0.761 µM in test [1] (humanized yeast strain, 40 h) and above 45 µM in test [2] (humanized yeast strain, 40 h).

A word on the IC50: it is the concentration at which inhibition is half-maximal. A lower IC50 goes with inhibition by little substance.
